From patent US7842683B2, “Neurotherapeutic compositions and method” (Revaax Pharmaceuticals, LLC, priority 1999, dated 2010) come the findings set out here.

Experiment [1] relates to rats. In words: Morris water maze, spatial navigation. It counts as in vivo, rat. An excerpt:
The Morris water maze like the radial arm maze was developed to test spatial memory (Morris, 1984). The pool is divided into quadrants usually designated North, South, East and West. The water in the pool is made opaque with milk powder. Hidden just beneath the surface in one of the quadrants is a platform that serves as a escape route for rodents placed into the pool. An animal is placed some where in the pool from a variety of different start points and is timed for latency to find the platform, percent time spent in each quadrant, distance traveled and swimming speed. The animals has no visual or spatial cues in the pool and must rely on extra-maze cues, i.e., objects set up outside the pool that can be seen by the swimming animal. Through a series of trials a rat develops “place learning” or knowledge about the position of the platform based upon the extra-maze cues. The platform can be moved to a different quadrant each day combining spatial memory with working memory. This paradigm involves extinction of the prior memory and resolution of a new spatial problem.
The water maze consisted of a black plastic circular pool ca. 150 cm in diameter and 54 cm in height filled to a level of 35 cm with water made opaque with powdered milk. The pool was divided into four quadrants with a platform 10 cm in diameter submerged 2 cm below the surface in the northwest quadrant. The water was maintained at a temperature of 25° C. Around the pool were several visual cues. Above the pool was a video camera for tracking the movement of the experimental animal. The data collection was completely automated using the software developed by HVS Image (Hampton, UK). Before testing, rats were familiarized with the pool and platform placed in the northwest quadrant. Each day for 4 consecutive days, animals were placed into pool at random sites and given two min to find the platform. Animals were treated one hr before testing with 50 μg/kg Mox (n=11) or vehicle (n=10). Following these familiarization trials, animals were tested for spatial navigation. The first day of testing began with the platform in the expected northwest quadrant. All behavior was videotaped for a two min observation period. After testing the animal were dried off and placed back into their home cage. On each subsequent day the platform was moved to a new quadrant and the rat started at different positions. The rat was always placed into the pool facing the side wall. The start positions relative to the platform were different for each of the four trials; however, the platform was always in the same relative position in each quadrant. Twenty cm in from the side of the pool and in the left corner from the center facing out.
The Morris water maze was developed to test spatial memory (Morris, 1984). The pool is divided into quadrants usually designated North, South, East and West. The water in the pool is made opaque with milk powder. Hidden just beneath the surface in one of the quadrants is a platform that serves as a escape route for rodents placed into the pool. An animal is placed some where in the pool from a variety of different start points and is timed for latency to find the platform, percent time spent in each quadrant, distance traveled and swimming speed. The animals have no visual or spatial cues in the pool and must rely on extra-maze cues, i.e., objects set up outside the pool that can be seen by the swimming animal. Through a series of trials a rat develops “place learning” or knowledge about the position of the platform based upon the extra-maze cues. The platform can be moved to a different quadrant each day combining spatial memory with working memory. This paradigm involves extinction of the prior memory and resolution of a new spatial problem.
The water maze consisted of a black plastic circular pool ca. 150 cm in diameter and 54 cm in height filled to a level of 35 cm with water made opaque with powdered milk. […]

For experiment [2], the system named is Male Wistar rats. In words: Elevated plus-maze (anxiolytic activity). Format: in vivo, rat. The text has this: The elevated plus-maze was developed for the detection of anxiolytic and anxiogenic drug effects in the rat (Pellow et al., 1985). The method has been validated behaviorally, physiologically, and pharmacologically. The plus-maze consists of two open arms and two enclosed arms. […] Conversely, anxiogenic compounds like yohimbin or amphetamines reduce open arm entries and time spent in the open arms.
Male Wistar rats weighing 250-300 g were group housed in a normal 12:12 light-dark cycle light on at 0800 hr and provide food and water ad libitum. The plus-maze consisted of two open arms, 50×10 cm, and two enclosed arms 50×10×40 cm with an open roof, arranged such that the two open arms were opposite to each other. The maze was elevated to a height of 50 cm.
Eight animals were tested in the plus-maze 90 min following IP injection with 50 μg/kg Mox and saline vehicle. The order of treatments was counter balanced with at least 48 hrs between injections. At the start of the experiment the animal was place in the center of the plus maze facing the closed arm. Over a five min observation period, animals were scored for the latency to enter the closed arm, time spent in the closed arm and the number of open arm entries following the first occupation of the closed arm (FIG. 7).
Because Mox and CDP have different bioavailability profiles, e.g. brain penetrance, their CNS activity could not be compared by giving systemic injections of equimolar concentrations of each drug. Instead it was necessary to give both drugs directly into the cerebroventricular system to by pass the blood brain barrier. Animals were anesthetized with sodium pentobarbital (50 mg/kg), implanted with microinjection guide cannulae aimed at the lateral ventricle and allowed to recover for two days before testing. To groups of six animals each were tested with Mox or CDP. Each animals received a injection of drug and 0.9% NaCl vehicle on two separate days. The order of injections was counterbalanced and separated by two days. Both Mox and CDP were prepared in 0.9% NaCl at a concentration of 1 mM. All injections were given in a volume of 2 ul over 10 secs in fully conscious, restrained animals. Sixty min later animals were tested in the plus-maze for a 3 min observation period and scored for behaviors as noted previously.
The elevated plus-maze was developed for screening anxiolytic and anxiogenic drug effects in the rat (Pellow et al., 1985). The method has been validated behaviorally, physiologically, and pharmacologically. The plus-maze consists of two open arms and two enclosed arms. […] Conversely, anxiogenic compounds like yohimbin or amphetamines reduce open arm entries and time spent in the open arms.
Male Wistar rats weighing 250-300 g were group housed in a normal 12:12 light-dark cycle with light on at 0800 hr and provided food and water ad libitum. The plus-maze consisted of two open arms, 50 cm long, 10 cm wide, with walls 40 cm high made of clear Plexiglas. The two closed arms had the same dimensions but included a roof. The Plexiglas for the closed arms was painted black. Each pair of arms was arranged opposite to each other to form the plus-maze. The maze was elevated to a height of 50 cm. Eighteen animals were tested in the plus-maze 90 min following the IP injection of 1.0 μg/kg CLAV, 50 or vehicle control in a volume of ca. 0.3 ml. The order of treatments was counter balanced with at least 48 hrs between injections. At the start of the experiment, the animal was placed at the end of one of the open arms. Over a five min observation period, animals were scored for the latency to enter the closed arm, time spent in the closed arm and the number of open arm entries following the first occupation of the closed arm. The study produced tables of repeated measures. The data between treatments were compared with a two-way, repeated measures ANOVA followed by Bonferroni post hoc tests. […]

Where [3] appears, read: daily IP for seven days: CLAV 100 ng/kg, CDP 10 mg/kg.

On to `O=C(O)[C@H]1/C(=C/CO)O[C@@H]2CC(=O)N21` [CLAV, Clavulanic acid], for which, in experiment [1] (CLAV 1.0 μg/kg), the “percentage of time spent in each quadrant” value is “no significant difference between treatments” and the swim rate result was “no significant difference”. Also, the “latency to find the platform, main effect” value in experiment [1] (CLAV 1.0 μg/kg one hr before testing) was “no main effect for drug treatment”. The “path length to find the platform” value in experiment [1] (CLAV 1.0 μg/kg, Day 1) was “much shorter distance”. In experiment [1] (CLAV 1.0 μg/kg, Day 2), the “time spent in the correct (South) quadrant” value is given as “over 50%”. The “latency to find the platform” value in experiment [1] (CLAV 1.0 μg/kg, Days 1 and 4, trend towards significance) is listed as “shorter latencies”. In experiment [2] (CLAV 1.0 μg/kg IP, 90 min), the open arm entries result was “increased movement into the lighted open arms” and the “time spent in the open arm” value is on record as “significantly increased”. Moreover, the “latency to enter the dark (time in starting open light position)” value in experiment [2] (CLAV 1.0 μg/kg IP, 90 min, five min observation) was “longer”. In addition, in experiment [2] (setting [3]), the “latency to enter the dark closed arms” value was “significantly greater” and the “time spent exposed to light in the open arms” value is on record as “significantly greater”.

Regarding `CO[C@@]1(NC(=O)C(C(=O)O)c2ccc(O)cc2)C(=O)N2C(C(=O)O)=C(CSc3nnnn3C)CO[C@@H]21` (stereo partly drawn) [Mox, 7-β-[2-carboxy-2-(4-hydroxyphenyl)acetamido]-7α-methoxy-3-[[(1-methyl-1H-tetrazol-5-yl)thio]methyl]-1-oxa-1-dethia-3-cephem-4-carboxylic acid], in experiment [1] (Mox 50 μg/kg), the “distance covered to reach the platform” value is listed as “not significantly different”, the “percentage of time spent in each quadrant” value is reported as “no significant difference between treatments” and the swim speed result is listed as “significantly greater swim speed”. For the same compound, the “latency to find the hidden platform” value in experiment [1] (Mox 50 μg/kg one hr before testing, days two, three and four) is given as “significantly shorter latencies”. In addition, the “swim speed relative to vehicle” value in experiment [1] (Mox 50 μg/kg, Day 2) is reported as “almost twice the speed”. Moreover, in experiment [2] (50 μg/kg IP, 90 min), the “number of open arm entries” value is given as “significantly elevated” and the “time spent in the closed arm” value is listed as “significantly reduced”. The “latency to enter the closed arm” value in experiment [2] (50 μg/kg IP, 90 min, five min observation) is reported as “significantly increased”. For the same compound, the “time spent in the closed arm (dark)” value in experiment [2] (1 mM, 2 ul into lateral ventricle, 60 min) is recorded as “significantly (p<0.01) lower”. Besides, the “latency to enter the closed arm” value in experiment [2] (1 mM, 2 ul into lateral ventricle, 60 min, 3 min observation) is “significantly (p<0.05) delayed”.
